Experimental data: US20220233435A1 (priority 2019, published 2022)

Assay: Release of nicotine and vanillin from devices in artificial saliva
Assay type: physicochemical
Settings: device with 50 w-% PVA / 50 w-% PLA, ca. 20 mg
Method: Three devices of each polymer matrix formulation were chosen for drug release experiments. Prior to the experiments, the dimensions and weight of the capsules were recorded. In the drug release experiments, the capsules were immersed in 2 mL of artificial saliva, which itself consists of a solution of 16.8 mM Na2HPO4, 1.4 mM KH2PO4, and 137 mM NaCl salts dissolved in purified water at pH 6.75. The solution was kept at 37° C. and under constant stirring. Once a day, 150 μL of solution was withdrawn from each sample to measure the amount of released drug in a high-performance liquid chromatography apparatus (HPLC). An equal amount of solution was added after each withdrawal to keep the total volume constant. The experiment was ceased between 35 and 42 days, due to devices turning red resulting from paracetamol degradation, or when all the drug was deemed to be released.
The release of nicotine and vanillin was measured similarly as in Examples 1 and 2.

## CN1CCCC1c1cccnc1 (stereo not drawn) [Nicotine, nicotine]
Day 2
  cumulative release from device: 6 µg
Day 14
  cumulative release from device: ca. 7 μg
  loading degree in device: 0.04 w-%

## COc1cc(C=O)ccc1O [Vanillin, vanillin]
Day 4
  cumulative release from device: ca. 50 μg
Day 7
  cumulative release from device: 65 µg
  loading degree in device: 0.32 w-%
